Test results from patent US20160090397A1, “Se-Adenosyl-L-Selenohomocysteine Selenoxide As A Modulator Of Methyltransferase And Other Activities” (priority 2014, published 2016).
“Also recorded” adds a separate entry of the source.

Assays:
[1] = molecular target: protein methyltransferase II (Homo sapiens, UniProt P22061); settings: in vitro; cited from earlier work
[2] = molecular target: histamine N-methyltransferase (HMT) (Homo sapiens, UniProt P50135); settings: in vitro; cited from earlier work
[3] = molecular target: T1, catechol-O-methyltransferase (COMT) (Homo sapiens, UniProt P21964); assay: Reduction upon incubation with methyltransferase COMT; type: biochemical
T1 sequence (P21964 1-271): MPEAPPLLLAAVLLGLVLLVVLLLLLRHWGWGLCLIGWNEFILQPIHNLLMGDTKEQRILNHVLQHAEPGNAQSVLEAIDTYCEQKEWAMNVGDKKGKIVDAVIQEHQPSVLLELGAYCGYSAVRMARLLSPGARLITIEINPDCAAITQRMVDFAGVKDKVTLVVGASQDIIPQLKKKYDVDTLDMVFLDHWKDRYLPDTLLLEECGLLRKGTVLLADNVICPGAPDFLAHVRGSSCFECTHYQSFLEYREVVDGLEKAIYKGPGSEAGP
Experimental: (§1) However, SeAHO was not reduced upon incubation with the non-methyltransferase protein lysozyme (data not shown). […] The reduction of SeAHO by methyltransferases may result in the oxidation or modification of these enzymes. This property could be exploited to identify methyltransferases that are reactive with SeAHO, or, depending on the site of oxidation, this process may modulate the activities of methyltransferases. In other words, SeAHO may act as a covalent inhibitor (reactive or suicide inhibitor) or activator of these methyltransferases.

[4] = Reduction of selenoxide/sulfoxide by thiols and thioethers at ambient temperature (C18 HPLC); type: physicochemical; settings: for reduction by glutathione (GSH) / reduction by cysteine: ambient temperature; for reduction by glutathione (GSH): C18 HPLC
From the text: The sulfoxide SAHO analog was not reduced under these biological conditions with glutathione (GSH) or cysteine. The reduction of sulfoxides generally requires more forcing conditions.

[5] = molecular target: E. coli cyclopropane fatty acid synthase (Escherichia coli, UniProt P0A9H7); settings: in vitro; cited from earlier work
[6] = molecular target: T1, catechol-O-methyltransferase (COMT); settings: in vitro; cited from earlier work
[7] = system: viral mRNA methyltransferases; settings: in vitro; cited from earlier work
[8] = molecular target: T2, phenylethanolamine N-methyltransferase (PNMT) (Homo sapiens, UniProt P11086); settings: in vitro; cited from earlier work
T2 sequence (P11086 1-282): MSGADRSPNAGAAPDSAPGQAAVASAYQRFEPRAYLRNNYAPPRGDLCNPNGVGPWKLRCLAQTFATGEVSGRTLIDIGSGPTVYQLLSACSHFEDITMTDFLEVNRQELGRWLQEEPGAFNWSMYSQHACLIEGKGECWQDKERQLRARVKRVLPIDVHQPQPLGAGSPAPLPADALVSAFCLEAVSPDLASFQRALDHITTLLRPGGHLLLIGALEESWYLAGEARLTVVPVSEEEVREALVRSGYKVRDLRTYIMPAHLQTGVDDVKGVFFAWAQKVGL

[9] = molecular target: T3, thiopurine methyltransferase (TPMT) (Homo sapiens, UniProt P51580); assay: Oxidation of thionitrobenzoate (TNB), Se-SAHO as TPMT substrate (absorbance); type: biochemical
T3 sequence (P51580 1-245): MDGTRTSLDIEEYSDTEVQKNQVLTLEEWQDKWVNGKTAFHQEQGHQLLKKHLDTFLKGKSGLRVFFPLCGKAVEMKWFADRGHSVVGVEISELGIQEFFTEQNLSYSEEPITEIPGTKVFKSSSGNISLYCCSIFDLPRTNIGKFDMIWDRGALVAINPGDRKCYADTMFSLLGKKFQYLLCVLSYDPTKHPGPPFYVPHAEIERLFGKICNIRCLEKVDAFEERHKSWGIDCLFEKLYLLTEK
From the text: FIG. 1 depicts an absorbance spectrum for Se—SAHO as a thiopurine methyltransferase (TPMT) substrate wherein the oxidation of thionitrobenzoate (TNB) by H2O2 causes a clear shift in absorbance maxima from ˜410 nm to ˜325 nm.

lysozyme = assay: Incubation with non-methyltransferase protein lysozyme; type: biochemical; settings: data not shown
Experimental: as §1

[10] = Stability of SeAHO in aqueous solutions (HPLC, proton NMR); type: physicochemical
Experimental: Characterization of selenoxide SeAHO in an aqueous environment was of greater biological significance.
The selenoxide SeAHO generally appeared to be a 60:40 mixture by ^1H NMR in 50 mM phosphate buffers of D2O at measured pH's of 3 and 7.

[11] = molecular target: T1, catechol-O-methyltransferase (COMT); assay: COMT-catalysed oxidation of epinephrine to adrenochrome with SeAHO; type: biochemical; settings: various COMT concentrations
From the text: This reactivity (redox reaction) conferred by SeAHO can be exploited to oxidize substrate compounds in a selective and specific manner.

[12] = molecular target: T3, thiopurine methyltransferase (TPMT); assay: Reduction upon incubation with methyltransferase TPMT; type: biochemical
Experimental: as §1

Sequence of protein methyltransferase II (P22061 whole entry): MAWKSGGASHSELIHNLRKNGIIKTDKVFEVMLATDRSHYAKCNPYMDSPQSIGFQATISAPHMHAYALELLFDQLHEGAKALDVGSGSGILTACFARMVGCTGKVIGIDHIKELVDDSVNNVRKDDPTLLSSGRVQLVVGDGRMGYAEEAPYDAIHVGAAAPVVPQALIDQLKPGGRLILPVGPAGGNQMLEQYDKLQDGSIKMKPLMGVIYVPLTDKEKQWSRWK
Sequence of E. coli cyclopropane fatty acid synthase (P0A9H7 whole entry): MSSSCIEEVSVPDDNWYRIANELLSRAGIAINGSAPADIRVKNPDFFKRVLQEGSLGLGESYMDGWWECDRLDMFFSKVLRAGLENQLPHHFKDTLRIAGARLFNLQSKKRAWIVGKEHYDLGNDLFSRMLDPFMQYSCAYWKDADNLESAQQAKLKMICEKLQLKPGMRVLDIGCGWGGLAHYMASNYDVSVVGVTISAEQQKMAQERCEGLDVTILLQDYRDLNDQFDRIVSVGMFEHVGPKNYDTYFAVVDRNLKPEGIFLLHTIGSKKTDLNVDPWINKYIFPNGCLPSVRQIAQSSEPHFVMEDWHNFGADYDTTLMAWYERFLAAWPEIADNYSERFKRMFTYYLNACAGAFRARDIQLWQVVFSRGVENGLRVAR
Sequence of histamine N-methyltransferase (HMT) (P50135 whole entry, species assumed): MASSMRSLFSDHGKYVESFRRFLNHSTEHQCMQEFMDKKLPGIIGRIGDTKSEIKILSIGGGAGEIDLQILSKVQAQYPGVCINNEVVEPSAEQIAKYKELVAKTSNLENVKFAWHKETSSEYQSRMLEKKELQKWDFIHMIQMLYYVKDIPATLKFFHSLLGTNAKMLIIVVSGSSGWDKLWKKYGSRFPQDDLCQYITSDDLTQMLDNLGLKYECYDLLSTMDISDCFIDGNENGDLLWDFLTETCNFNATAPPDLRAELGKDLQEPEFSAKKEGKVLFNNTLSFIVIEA

Nc1ncnc2c1ncn2[C@@H]1O[C@H](C[S+]([O-])CC[C@H](N)C(=O)O)[C@@H](O)[C@H]1O (some centres unmarked) [SAHO]
inhibition of protein methyltransferase II [1]: inhibitor | inhibition of HMT [2]: inhibitor | reduction upon incubation with COMT [3]: remains oxidized | reduction by glutathione (GSH) [4]: not reduced | reduction by cysteine ([4]; data not shown): not reduced | inhibition of E. coli cyclopropane fatty acid synthase [5]: inhibitor | inhibition of COMT [6]: inhibitor | inhibition of viral mRNA methyltransferases [7]: inhibitor | inhibition of PNMT [8]: inhibitor

Se-Adenosylselenohomocysteine selenoxide [SeAHO]
oxidation of TNB (shift in absorbance maxima) [9]: able to oxidize TNB

Nc1ncnc2c1ncn2[C@@H]1O[C@H](C[Se](=O)CC[C@H](N)C(=O)O)C(O)[C@@H]1O (some centres unmarked) [SeAHO, Se-Adenosylselenohomocysteine selenoxide]
reduction upon incubation with lysozyme (lysozyme): not reduced | reduction upon incubation with COMT [3]: reduced to Se-adenosyl-L-selenohomocysteine (SeAH) | reduction by glutathione (GSH) [4]: readily reduced | reduction by cysteine ([4]; data not shown): also reduced; also recorded: readily reduced | reduction by thioether methionine ([4]; data not shown): not by thioethers methionine | decomposition by HPLC ([10]; after 2 weeks or when prepared in pure deionized water): some decomposition was observed | decomposition by NMR ([10]; pH 12 phosphate buffer): only a very small amount of decomposition was observed | stability to hydrolysis of the C1′-adenine bond / degradation ([10]; phosphate buffered aqueous solutions, pH 3-12, ambient temperature, at least three hours, HPLC or proton NMR): completely stable | COMT-catalysed oxidation of epinephrine to adrenochrome [11]: reacts with epinephrine to form adrenochrome at a rate dependent on COMT concentration; also recorded: catalyzes the oxidation of epinephrine with SeAHO and the production of adrenochrome and SeAH | reduction upon incubation with TPMT [12]: reduced to Se-adenosyl-L-selenohomocysteine (SeAH)
